This note sets out measurements from ChEMBL document CHEMBL1201862, “PubChem BioAssay data set” (2004).

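Method: 48-hour compound exposure of cells in 96-well plates, five concentrations, linear interpolation of endpoints. GI50 = concentration required for 50% inhibition of growth.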 Calls of active or inactive are those of the source. No stated cut-off is given here; in the data, active = GI50 up to about 1.1 µM and inactive = higher.

Among the test systems are A549; DU-145; HL-60; HT-29; KM12; MDA-MB-435; Malme-3M; NCI-H226; NCI-H23; NCI-H522; NCI/ADR-RES; OVCAR-5; PC-3; SF-295; SK-MEL-28; SK-MEL-5; SNB-75; SW-620; UACC-62; UO-31.
What all share (test): NCI-60 cell line screen, 48 h

Take `CCOc1ccc(/N=N/c2ccc3cc(/C(C)=N/NC(=O)/C(C#N)=C\c4ccc(N(CCC#N)CCC#N)cc4)c(=O)oc3c2)cc1`: the GI50 in the test on A549, with DU-145, in the test with HL-60, in the test with HT-29, in the test with KM12 and in the test with MDA-MB-435 was > 10 µM (inactive) each time. The GI50 in the test with Malme-3M, with NCI-H226, with NCI-H23, in the test on NCI-H522, in the test with NCI/ADR-RES and in the test on OVCAR-5 was > 10 µM (inactive) throughout. Also, the GI50 in the test on PC-3 is > 10 µM (inactive); in the test on SF-295, > 10 µM (inactive); in the test with SK-MEL-28, > 10 µM (inactive); in the test on SK-MEL-5 it was > 10 µM (inactive); in the test on SNB-75 it was 1.86 µM (inactive); in the test with SW-620 it was > 10 µM (inactive). Further, the GI50 with UACC-62 and in the test with UO-31 was > 10 µM (inactive) in each case.

Consider `CC(=O)Oc1ccc(C(c2ccc(OC(C)=O)cc2)c2ccccn2)cc1` [BISACODYL], for which the GI50 with A549 is 91.4 µM (inactive); in the test with DU-145, > 84.3 µM (inactive); in the test on HL-60 it was 36.2 µM (inactive); in the test with HT-29 it was > 93.5 µM (inactive); in the test with KM12 it was 70.3 µM (inactive); in the test on MDA-MB-435 it was 76.4 µM (inactive). Moreover, the GI50 in the test with Malme-3M was 78.5 µM (inactive); with NCI-H226, 87.3 µM (inactive); in the test on NCI-H23, 3.83 µM (inactive); in the test with NCI-H522 it was 76.7 µM (inactive); in the test on NCI/ADR-RES, 1.32 µM (inactive); in the test with OVCAR-5, 22.1 µM (inactive). In addition, the GI50 was 26.5 µM (inactive) in the test on PC-3; 64.3 µM (inactive) with SF-295; > 100 µM (inactive) in the test with SK-MEL-28; 68.4 µM (inactive) in the test on SK-MEL-5; 28.5 µM (inactive) with SNB-75; > 100 µM (inactive) in the test on SW-620. Moreover, the GI50 is 47.5 µM (inactive) in the test with UACC-62 and 69.7 µM (inactive) with UO-31.

On to `O=C(c1ccc2ccccc2c1)N(Cc1cccnc1)C(=S)N(Cc1cccnc1)C(=O)c1ccc2ccccc2c1`, for which the GI50 in the test on A549 was 39.3 µM (inactive); in the test on DU-145 it was 27 µM (inactive); in the test on HL-60, 40.8 µM (inactive); in the test with HT-29, 30 µM (inactive); in the test on KM12, 22 µM (inactive); in the test with MDA-MB-435, 34 µM (inactive). Besides, the GI50 was > 100 µM (inactive) in the test with Malme-3M; 61.2 µM (inactive) with NCI-H226; 23.1 µM (inactive) in the test on NCI-H23; 37.4 µM (inactive) in the test on NCI-H522; 30 µM (inactive) with NCI/ADR-RES; 55 µM (inactive) in the test with OVCAR-5. The GI50 with PC-3 was 28.3 µM (inactive); with SF-295 it was 34.7 µM (inactive); with SK-MEL-28, 36.9 µM (inactive); in the test with SK-MEL-5, 20.6 µM (inactive); with SNB-75 it was 24.9 µM (inactive); with SW-620, 49.5 µM (inactive). Besides, the GI50 in the test with UACC-62 is 26 µM (inactive); with UO-31, 28.6 µM (inactive).

Consider `Cc1ccccc1N1C(N)=C(C#N)C(C#N)(C#N)C1c1ccccc1` (stereo not given), for which the GI50 in the test on A549 is 26.1 µM (inactive); with DU-145 it was 16.7 µM (inactive); in the test with HL-60 it was 18.5 µM (inactive); in the test on HT-29, 18.4 µM (inactive); in the test on KM12, 16.8 µM (inactive); in the test with MDA-MB-435 it was 17.7 µM (inactive). The GI50 with Malme-3M is 16.4 µM (inactive); in the test on NCI-H226, 20.7 µM (inactive); in the test with NCI-H23 it was 19.4 µM (inactive); in the test with NCI-H522 it was 15.3 µM (inactive); with NCI/ADR-RES, 20.7 µM (inactive); in the test with OVCAR-5 it was 21.9 µM (inactive). Besides, the GI50 in the test with PC-3 is 24.6 µM (inactive); in the test with SF-295, 24.7 µM (inactive); in the test on SK-MEL-28, 17.6 µM (inactive); in the test with SK-MEL-5, 15.8 µM (inactive); in the test with SNB-75, 26 µM (inactive); with SW-620, 16.3 µM (inactive). Moreover, the results for the GI50 in the test with UACC-62 and with UO-31 were 17.9 µM (inactive) and 16.8 µM (inactive), respectively.

As to `C=CC[C@H]1[C@@H](O[Si](C)(C)C(C)(C)C)[C@H](n2ccc(=O)[nH]c2=O)O[C@@H]1CO[Si](C)(C)C(C)(C)C`, the GI50 with A549 is 1.85 µM (inactive); with DU-145 it was 2.09 µM (inactive); in the test on HL-60, 0.971 µM (active); in the test with HT-29 it was 1.59 µM (inactive); in the test with KM12, 1.65 µM (inactive); in the test on MDA-MB-435, 2 µM (inactive). Moreover, the GI50 in the test on Malme-3M is 2.89 µM (inactive); in the test on NCI-H226, 4.11 µM (inactive); in the test on NCI-H23 it was 2.14 µM (inactive); in the test on NCI-H522, 1.76 µM (inactive); in the test with NCI/ADR-RES, 2.15 µM (inactive); with OVCAR-5, 1.5 µM (inactive). The GI50 was 2.44 µM (inactive) in the test on PC-3; 1.98 µM (inactive) in the test with SF-295; 1.55 µM (inactive) in the test on SK-MEL-28; 1.72 µM (inactive) in the test on SK-MEL-5; 1.34 µM (inactive) with SNB-75; 1.82 µM (inactive) with SW-620. In addition, the GI50 in the test on UACC-62 was 1.74 µM (inactive); with UO-31, 1.69 µM (inactive).

As to `CN(C)CCn1c(CO)nc2c1c(=O)n(C)c(=O)n2C`, the GI50 in the test with A549, with DU-145, in the test with HL-60, in the test with HT-29, with KM12 and with MDA-MB-435 was > 100 µM (inactive) throughout. The GI50 in the test on Malme-3M, in the test with NCI-H226, with NCI-H23, in the test on NCI-H522, in the test with NCI/ADR-RES and in the test with OVCAR-5 was > 100 µM (inactive) in each case. In addition, the GI50 in the test on PC-3, in the test on SF-295, in the test with SK-MEL-28, in the test on SK-MEL-5, in the test on SNB-75 and with SW-620 was > 100 µM (inactive) in each case. Also, the GI50 with UACC-62 and with UO-31 was > 100 µM (inactive) each time.

As for `CCC(C)C1=C(OC(C)=O)[N+]2([O-])Oc3ccc(-c4c(OC(C)=O)c(OC(C)=O)c(-c5ccc(OC(C)=O)cc5)c(OC(C)=O)c4OC(C)=O)cc3OC2(C(C)CC)C(=O)N1OC(C)=O` (stereo not given), the GI50 with A549 is 18 µM (inactive); in the test with DU-145, 19.3 µM (inactive); in the test with HL-60 it was 7.71 µM (inactive); with HT-29, 19.9 µM (inactive); with KM12, 19.3 µM (inactive); in the test with MDA-MB-435, 17.5 µM (inactive). Also, the GI50 is 18.7 µM (inactive) in the test with Malme-3M; 21.1 µM (inactive) with NCI-H226; 20.6 µM (inactive) in the test with NCI-H23; 8.53 µM (inactive) in the test with NCI-H522; > 50 µM (inactive) in the test on NCI/ADR-RES; 24 µM (inactive) with OVCAR-5. The GI50 with PC-3 is 22.5 µM (inactive); in the test on SF-295, 8.69 µM (inactive); with SK-MEL-28, 19.5 µM (inactive); in the test with SK-MEL-5 it was 11 µM (inactive); in the test on SNB-75, 14.8 µM (inactive); with SW-620, 20.5 µM (inactive). The GI50 was 9.06 µM (inactive) in the test on UACC-62 and 30.6 µM (inactive) with UO-31.

`NS(=O)(=O)c1ccc(-c2ccc([As](=O)(O)O)cc2)cc1`: the GI50 with A549, in the test on DU-145, in the test on HL-60, in the test with HT-29, in the test on KM12 and in the test on MDA-MB-435 was > 100 µM (inactive) each time. In addition, the GI50 in the test with Malme-3M, with NCI-H226, in the test with NCI-H23, in the test with NCI-H522, in the test on NCI/ADR-RES and in the test on OVCAR-5 was > 100 µM (inactive) throughout. In addition, the GI50 in the test with PC-3 was > 100 µM (inactive); in the test with SF-295, > 100 µM (inactive); with SK-MEL-28, > 100 µM (inactive); with SK-MEL-5 it was > 100 µM (inactive); in the test on SNB-75, 11.6 µM (inactive); in the test on SW-620, > 100 µM (inactive). Besides, the GI50 in the test on UACC-62 and with UO-31 was > 100 µM (inactive) in each case.

As for `CC(C)C(C/C=C1\CC(CO)(COC(=O)CC(C(C)C)C(C)C)OC1=O)C(C)C` (stereo not given), the GI50 in the test with A549 was 3.72 µM (inactive); in the test with DU-145, 8.85 µM (inactive); in the test with HL-60 it was 2.74 µM (inactive); with HT-29 it was 17.7 µM (inactive); in the test on KM12 it was 14.2 µM (inactive); in the test with MDA-MB-435, 7.06 µM (inactive). Further, the GI50 with Malme-3M was 1.45 µM (inactive); in the test with NCI-H226 it was 9.04 µM (inactive); in the test on NCI-H23, 15 µM (inactive); with NCI-H522, 13.8 µM (inactive); in the test on NCI/ADR-RES, 16 µM (inactive); in the test with OVCAR-5, 13.9 µM (inactive). Also, the GI50 is 11.7 µM (inactive) in the test on PC-3; 4.62 µM (inactive) in the test with SF-295; 14.9 µM (inactive) with SK-MEL-28; 11 µM (inactive) in the test with SK-MEL-5; 10.4 µM (inactive) in the test with SNB-75; 7.46 µM (inactive) in the test on SW-620. Moreover, the GI50 with UACC-62 was 15.1 µM (inactive); in the test on UO-31, 6.87 µM (inactive).

In the case of `C/C=C(/COC(C)=O)C(=O)OC1C=C(C=O)C(C)(C)C=C1C` (stereo not given), the GI50 is > 100 µM (inactive) in the test with A549; > 100 µM (inactive) in the test on DU-145; 45.1 µM (inactive) in the test on HL-60; > 100 µM (inactive) in the test with HT-29; > 100 µM (inactive) with KM12; > 100 µM (inactive) in the test on MDA-MB-435. Besides, the GI50 in the test with Malme-3M, in the test with NCI-H226, in the test with NCI-H23, with NCI-H522, in the test on NCI/ADR-RES and with OVCAR-5 was > 100 µM (inactive) throughout. Also, the GI50 with PC-3 is > 100 µM (inactive); in the test with SF-295, > 100 µM (inactive); in the test with SK-MEL-28 it was > 100 µM (inactive); with SK-MEL-5, > 100 µM (inactive); with SNB-75, 43.6 µM (inactive); with SW-620, > 100 µM (inactive). In addition, the GI50 in the test with UACC-62 and in the test with UO-31 was > 100 µM (inactive) throughout.
